Measured values reported in the supplement of paper PMC10307832.

Experiments:
Assay in all cases: relative viability (nuclei count vs DMSO), 5 days (fraction); higher = more cells survive
CX-5461 + Navitoclax = compound: Cc1cnc(CNC(=O)c2c(=O)c3ccc(N4CCCN(C)CC4)nc3n3c2sc2ccccc23)cn1 [CX-5461] + CC1(C)CCC(c2ccc(Cl)cc2)=C(CN2CCN(c3ccc(C(=O)NS(=O)(=O)c4ccc(N[C@H](CCN5CCOCC5)CSc5ccccc5)c(S(=O)(=O)C(F)(F)F)c4)cc3)CC2)C1 [Navitoclax] (partner 0.5 µM)
Summary of the method: (§1)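 Lung cancer cell lines in 1536-well plates got either a single drug or a fixed anchor-drug dose together with five library-drug doses (not always all listed) in √10 steps, by pin tool, on the day after seeding. Nuclei were counted after 5 days, and relative viability is the treated-to-vehicle ratio of nuclei counts. Values are medians of duplicate plates.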

IMD-0354 = compound: O=C(Nc1cc(C(F)(F)F)cc(C(F)(F)F)c1)c1cc(Cl)ccc1O [IMD-0354]
Summary of the method: (§2)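 Viability was read as treated-well nuclei divided by vehicle-well nuclei, using the median across plates. Lung cancer cell lines in 1536-well plates were kept overnight at 37 °C, pinned with five √10-spaced library-drug doses, and after 5 days were Hoechst-stained, imaged at 4× and counted in MetaXpress. Plates passed only with control CV below 25% and at least one doubling.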

CX-5461 = compound: Cc1cnc(CNC(=O)c2c(=O)c3ccc(N4CCCN(C)CC4)nc3n3c2sc2ccccc23)cn1 [CX-5461]
Summary of the method: as §2

CX-5461 + Foretinib = compound: Cc1cnc(CNC(=O)c2c(=O)c3ccc(N4CCCN(C)CC4)nc3n3c2sc2ccccc23)cn1 [CX-5461] + COc1cc2c(Oc3ccc(NC(=O)C4(C(=O)Nc5ccc(F)cc5)CC4)cc3F)ccnc2cc1OCCCN1CCOCC1 [Foretinib] (partner 0.25 µM)
Summary of the method: as §1

Cell Line | relative viability (CX-5461 + Navitoclax; first compound 0.01 µM) | relative viability (CX-5461 + Navitoclax; first compound 0.03162 µM) | relative viability (CX-5461 + Navitoclax; first compound 0.1 µM) | relative viability (CX-5461 + Navitoclax; first compound 0.3162 µM) | relative viability (CX-5461 + Navitoclax; first compound 1 µM) | relative viability (IMD-0354; 0.04 µM) | relative viability (IMD-0354; 0.1265 µM) | relative viability (IMD-0354; 0.4 µM) | relative viability (IMD-0354; 1.265 µM) | relative viability (IMD-0354; 4 µM) | relative viability (CX-5461; 0.01 µM) | relative viability (CX-5461; 0.03162 µM) | relative viability (CX-5461; 0.1 µM) | relative viability (CX-5461; 0.3162 µM) | relative viability (CX-5461; 1 µM) | relative viability (CX-5461 + Foretinib; first compound 0.01 µM) | relative viability (CX-5461 + Foretinib; first compound 0.03162 µM) | relative viability (CX-5461 + Foretinib; first compound 0.1 µM) | relative viability (CX-5461 + Foretinib; first compound 0.3162 µM) | relative viability (CX-5461 + Foretinib; first compound 1 µM)
HCC-44 | 0.931 | 1.08 | 1.09 | 0.983 | 1.02 | 0.967 | 1.03 | 0.497 | 0.301 | 0.194 | 0.956 | 0.998 | 0.964 | 0.98 | 0.839 |  |  |  |  | 
HCC-827 | 1.07 | 1.01 | 1.02 | 1.02 | 0.975 | 1.06 | 1.05 | 0.736 | 0.439 | 0.258 | 1.02 | 1.02 | 1.03 | 1.01 | 0.933 | 1.08 | 1.09 | 1.02 | 1.03 | 1.06
NCI-H1623 |  |  |  |  |  | 0.962 | 1 | 1.02 | 0.992 | 0.451 | 1.18 | 0.979 | 0.904 | 0.674 | 0.94 | 0.971 | 0.871 | 0.809 | 0.934 | 0.723
NCI-H2347 | 0.968 | 0.864 | 0.858 | 0.601 | 0.73 | 1.1 | 1.02 | 0.738 | 0.511 | 0.4 | 1.02 | 1.04 | 1.04 | 0.937 | 0.908 | 0.994 | 1.11 | 0.947 | 0.842 | 0.849
PC-14 | 1.18 | 1.06 | 1.03 | 0.974 | 0.979 | 1.18 | 1.05 | 0.52 | 0.317 | 0.129 | 1.08 | 1.04 | 0.956 | 1.01 | 0.599 | 1 | 1.04 | 1.04 | 0.962 | 0.887
NCI-H1651 |  | 0.882 |  | 0.694 | 0.0867 | 1.04 | 0.983 | 0.577 | 0.402 | 0.139 | 0.956 | 0.871 | 0.57 | 0.959 | 0.371 | 0.734 | 0.55 |  | 0.598 | 0.168
HARA | 1.11 | 1.23 | 1.17 | 1.08 | 1.12 | 1.17 | 0.88 | 0.537 | 0.154 | 0.205 | 1.01 | 1.03 | 0.957 | 0.728 | 0.713 | 1.01 | 1.09 | 0.806 |  | 0.89
NCI-H1563 |  |  |  |  |  | 0.979 | 0.974 | 0.856 | 0.472 | 0.402 | 0.963 | 0.954 | 0.806 | 0.939 | 0.64 | 0.88 | 0.826 | 0.806 | 0.826 | 0.569
ABC-1 |  |  |  |  |  | 1.07 | 1.05 | 0.498 | 0.222 | 0.259 | 1.04 | 0.785 | 0.712 | 0.309 | 0.568 | 0.909 | 0.91 | 0.651 |  | 0.585
SW 900 |  |  |  |  |  | 0.987 | 0.889 | 0.509 | 0.239 | 0.243 | 0.918 | 1.11 | 0.586 | 0.877 | 0.401 | 0.967 | 0.968 | 1.07 | 1.08 | 0.811
NCI-H1648 |  |  |  |  |  | 0.588 | 0.686 | 0.685 | 0.814 | 0.365 | 0.614 | 0.952 | 0.674 | 0.742 | 0.851 |  |  |  |  | 
NCI-H1792 | 0.657 | 0.674 | 0.696 | 0.692 | 0.468 | 0.969 | 0.847 | 0.553 | 0.412 | 0.434 | 1.01 | 0.894 | 0.904 | 1.05 | 0.502 |  |  |  |  | 
LCLC-103H |  |  |  |  |  | 1.02 | 1.01 | 0.653 | 0.457 | 0.331 | 1.02 | 1.05 | 0.969 | 0.944 | 0.969 | 0.81 | 0.867 | 0.681 | 1.02 | 0.798
NCI-H2342 |  |  |  |  |  | 1.03 | 1.05 | 0.764 | 0.633 | 0.476 | 0.997 | 1 | 0.834 | 1.04 | 0.889 | 0.98 | 1.1 | 1.07 | 1.03 | 1.08
NCI-H522 |  |  |  |  |  | 0.934 | 0.848 | 0.909 | 0.7 | 0.406 | 0.98 | 0.944 | 0.946 |  | 0.951 |  |  |  |  | 
NCI-H358 |  |  |  |  |  | 1.01 | 1 | 0.557 | 0.232 | 0.274 | 0.971 | 1.02 | 0.872 | 0.871 | 0.633 | 0.671 | 0.666 | 0.791 | 0.236 | 0.336
NCI-H650 |  |  |  |  |  | 1.13 | 0.954 | 0.594 | 0.555 | 0.214 | 0.919 | 1.02 | 0.788 | 0.879 | 0.768 | 1.07 | 1.02 | 1.01 | 0.977 | 0.932
NCI-H661 |  |  |  |  |  | 0.999 | 0.955 | 0.646 | 0.291 | 0.305 | 1.04 | 0.978 | 1.02 | 0.626 | 0.835 | 0.928 | 0.98 | 0.985 | 0.497 | 0.673
